Measurements reported in US20250319107A1, “USE OF CANNABIDIOL AND CLOBAZAM IN THE TREATMENT OF CHILDHOOD-ONSET EPILEPSY SYNDROMES” (GW Research Limited, priority 2021, published 2025).

Tested on: patients with LGS or DS
Assay: Phase 3 randomized controlled trials of CBD versus placebo, adverse reactions in DS and LGS patients
Format: in vivo, human
Details: DS and LGS, 14-week treatment
From the text: Randomized, double-blind, parallel-group, trials of CBD versus placebo were undertaken and the adverse event experienced by the patients were collated and investigated.
In summary patients completed a 1-week screening period and a 4-week baseline period before they were randomized to receive CBD or equivalent volumes of placebo. Randomization was stratified by age.
Patients began a 4-week dose escalation period, titrating up to their assigned dose, before continuing on a stable dose of blinded investigational medicinal product (IMP) for 12 or 14 weeks.
Dose escalation for each patient was subject to the investigator's assessment of safety and tolerability. If a dose became poorly tolerated, the investigator may consider temporarily or permanently reducing the dose for the remainder of the study.
Clinic visits occurred for screening (Day-35), baseline (Day-28), randomization (Day 1) and, on Days 15 and 29 during titration and on Days 43, 57, 71 (telephone) and 85 until the end of treatment (Day 113). Safety telephone calls were completed every two days during titration, one week after the end of titration and, for patients not entering the open label extension (OLE), weekly from Visit 10 to Visit 12.
Safety and tolerability measures that were recorded included: adverse events; clinical laboratory parameters; 12-lead electrocardiogram (ECG); physical examination parameters (including height and weight); vital signs; Columbia-Suicide Severity Rating Scale (C-SSRS; 19+ years) or C-SSRS Children's (6-18 years) score, where applicable; number of inpatient hospitalizations due to epilepsy; abuse liability and effects on menstruation cycles (in females).
Table 1.1 below lists the adverse reactions that were reported in DS and LGS patients treated with CBD during the 14-week treatment period in the Phase 3 controlled trials.

[1] = All active (n = 456, includes 10 patients at 5 mg/kg/day)

**Q.** C=C(C)[C@@H]1CCC(C)=C[C@H]1c1c(O)cc(CCCCC)cc1O [CBD, cannabidiol] was tested. Which “Abnormal behavior, adverse reaction incidence” value (“Abnormal behavior” for short) (10 mg/kg/day (n = 139)) did it give?
**A.** 0%

**Q.** And the “Aggression, adverse reaction incidence” value (10 mg/kg/day (n = 139))?
**A.** 2%

**Q.** What about the “Agitation, adverse reaction incidence” value (10 mg/kg/day (n = 139)) of the same compound?
**A.** 0%

**Q.** What about the “Alanine aminotransferase increased, adverse reaction incidence” value (from here on “Alanine aminotransferase increased”) (10 mg/kg/day (n = 139)) of the same compound?
**A.** 4%

**Q.** What about the “Aspartate aminotransferase increased, adverse reaction incidence” value (shortened to “Aspartate aminotransferase increased”) (10 mg/kg/day (n = 139)) of the same compound?
**A.** 4%

**Q.** And the “Decreased appetite, adverse reaction incidence” value (from here on “Decreased appetite”) (10 mg/kg/day (n = 139))?
**A.** 17%

**Q.** And the “Diarrhea, adverse reaction incidence” value (10 mg/kg/day (n = 139))?
**A.** 13%

**Q.** What about the “Drooling, adverse reaction incidence” value (10 mg/kg/day (n = 139)) of the same compound?
**A.** 0%

**Q.** And the “Fatigue, adverse reaction incidence” value (10 mg/kg/day (n = 139))?
**A.** 7%

**Q.** And the “Gamma-glutamyl transferase increased, adverse reaction incidence” value (shortened to “Gamma-glutamyl transferase increased”) (10 mg/kg/day (n = 139))?
**A.** 4%

**Q.** And the “Insomnia, adverse reaction incidence” value (10 mg/kg/day (n = 139))?
**A.** 4%

**Q.** What about the “Irritability, adverse reaction incidence” value (10 mg/kg/day (n = 139)) of the same compound?
**A.** 7%

**Q.** And the “Lethargy, adverse reaction incidence” value (10 mg/kg/day (n = 139))?
**A.** 3%

**Q.** And the “Liver function test increased, adverse reaction incidence” value (from here on “Liver function test increased”) (10 mg/kg/day (n = 139))?
**A.** 0%

**Q.** What about the “Pneumonia (grouped terms), adverse reaction incidence” value (from here on “Pneumonia (grouped terms)”) (10 mg/kg/day (n = 139)) of the same compound?
**A.** 9%

**Q.** And the “Pyrexia, adverse reaction incidence” value (10 mg/kg/day (n = 139))?
**A.** 17%

**Q.** What about the “Rash, adverse reaction incidence” value (10 mg/kg/day (n = 139)) of the same compound?
**A.** 2%

**Q.** What about the “Somnolence (grouped: somnolence, sedation), adverse reaction incidence” value (from here on “Somnolence”) (10 mg/kg/day (n = 139)) of the same compound?
**A.** 26%

**Q.** What about the “Weight decreased, adverse reaction incidence” value (shortened to “Weight decreased”) (10 mg/kg/day (n = 139)) of the same compound?
**A.** 1%

**Q.** And the “Abnormal behavior” value (20 mg/kg/day (n = 307))?
**A.** 3%

**Q.** What about the “Aggression, adverse reaction incidence” value (20 mg/kg/day (n = 307)) of the same compound?
**A.** 5%

**Q.** What about the “Agitation, adverse reaction incidence” value (20 mg/kg/day (n = 307)) of the same compound?
**A.** 1%

**Q.** And the “Alanine aminotransferase increased” value (20 mg/kg/day (n = 307))?
**A.** 7%

**Q.** And the “Aspartate aminotransferase increased” value (20 mg/kg/day (n = 307))?
**A.** 7%

**Q.** What about the “Decreased appetite” value (20 mg/kg/day (n = 307)) of the same compound?
**A.** 24%

**Q.** What about the “Diarrhea, adverse reaction incidence” value (20 mg/kg/day (n = 307)) of the same compound?
**A.** 21%

**Q.** What about the “Drooling, adverse reaction incidence” value (20 mg/kg/day (n = 307)) of the same compound?
**A.** 3%

**Q.** What about the “Fatigue, adverse reaction incidence” value (20 mg/kg/day (n = 307)) of the same compound?
**A.** 13%

**Q.** What about the “Gamma-glutamyl transferase increased” value (20 mg/kg/day (n = 307)) of the same compound?
**A.** 5%

**Q.** And the “Insomnia, adverse reaction incidence” value (20 mg/kg/day (n = 307))?
**A.** 3%

**Q.** What about the “Irritability, adverse reaction incidence” value (20 mg/kg/day (n = 307)) of the same compound?
**A.** 5%

**Q.** What about the “Lethargy, adverse reaction incidence” value (20 mg/kg/day (n = 307)) of the same compound?
**A.** 6%

**Q.** And the “Liver function test increased” value (20 mg/kg/day (n = 307))?
**A.** 3%

**Q.** And the “Pneumonia (grouped terms)” value (20 mg/kg/day (n = 307))?
**A.** 5%

**Q.** And the “Pyrexia, adverse reaction incidence” value (20 mg/kg/day (n = 307))?
**A.** 15%

**Q.** And the “Rash, adverse reaction incidence” value (20 mg/kg/day (n = 307))?
**A.** 5%

**Q.** What about the “Somnolence” value (20 mg/kg/day (n = 307)) of the same compound?
**A.** 29%

**Q.** And the “Weight decreased” value (20 mg/kg/day (n = 307))?
**A.** 4%

**Q.** And the “Abnormal behavior” value [1]?
**A.** 2%

**Q.** And the “Aggression, adverse reaction incidence” value [1]?
**A.** 4%

**Q.** And the “Agitation, adverse reaction incidence” value [1]?
**A.** 1%

**Q.** What about the “Alanine aminotransferase increased” value [1] of the same compound?
**A.** 6%

**Q.** What about the “Aspartate aminotransferase increased” value [1] of the same compound?
**A.** 6%

**Q.** What about the “Decreased appetite” value [1] of the same compound?
**A.** 21%

**Q.** What about the “Diarrhea, adverse reaction incidence” value [1] of the same compound?
**A.** 18%

**Q.** What about the “Drooling, adverse reaction incidence” value [1] of the same compound?
**A.** 2%

**Q.** What about the “Fatigue, adverse reaction incidence” value [1] of the same compound?
**A.** 11%

**Q.** And the “Gamma-glutamyl transferase increased” value [1]?
**A.** 4%

**Q.** And the “Insomnia, adverse reaction incidence” value [1]?
**A.** 3%

**Q.** What about the “Irritability, adverse reaction incidence” value [1] of the same compound?
**A.** 6%

**Q.** And the “Lethargy, adverse reaction incidence” value [1]?
**A.** 5%

**Q.** What about the “Liver function test increased” value [1] of the same compound?
**A.** 2%

**Q.** What about the “Pneumonia (grouped terms)” value [1] of the same compound?
**A.** 6%

**Q.** And the “Pyrexia, adverse reaction incidence” value [1]?
**A.** 16%

**Q.** And the “Rash, adverse reaction incidence” value [1]?
**A.** 4%

**Q.** What about the “Somnolence” value [1] of the same compound?
**A.** 29%

**Q.** And the “Weight decreased” value [1]?
**A.** 3%
